# Values joined by “and” are separate entries in the source; they are usually repeats but may differ in a detail not shown here. Equal values may be shown once. Active and inactive are the calls of the source. How the calls were made is not given here.
# Biological target: Melanin-concentrating hormone receptor 1 (Homo sapiens) (UniProt Q99705)
# Experiment: antagonist activity at MCH receptor 1 – cell-based, fluorescence, set 4, counter-screen for GPR7 antagonist project, dose response (AID 588568)
# Conditions: MCHR1-expressing cells, fluorescence antagonist assay, run 1
Structure (SMILES),IC50,inhibition (at 20 µM (top of the series))
COc1ccc(Oc2c(/C=N\O)cnn(Cc3cccc4ccccc34)c2=O)cc1,inactive,–
COc1ccccc1CNC(=O)c1cnn(-c2ccc(Cl)cc2)c1C(F)(F)F,7.23 µM,–
COc1ccc(Oc2c(Cl)cnn(Cc3ccc(Cl)cc3Cl)c2=O)cc1,1.45 µM,–
COc1ccc(Oc2c(-c3ccsc3)c(-c3ccsc3)nn(Cc3ccccc3C)c2=O)cc1,> 20 µM (inactive),–
COc1ccc(Oc2c(Cl)cnn(CC3CCCCC3)c2=O)cc1,inactive,–
COc1ccc(Oc2c(Br)nn(-c3cccc(C)c3)c(=O)c2Oc2ccc(OC)cc2)cc1,1.66 µM,–
COc1ccc(Oc2c(Cl)cnn(Cc3cccc(C)c3)c2=O)cc1,4.7 µM,–
COc1ccc(Oc2c(Cl)cnn(-c3ccc(OC(C)C)cc3)c2=O)cc1,6.5 µM,–
COc1ccc(Oc2c(Cl)c(-c3ccc(C)cc3)nn(Cc3ccccc3C)c2=O)cc1,6.43 µM,–
COc1ccc(Oc2c(Cl)cnn(C(C(=O)OCCC3CCCC3)c3ccccc3Cl)c2=O)cc1 (stereo not drawn),> 20 µM (inactive),–
CCOc1ccc(Oc2c(NC(=O)OC(C)(C)C)cnn(Cc3cccc4ccccc34)c2=O)cc1,> 20 µM (inactive),–
COc1ccc(Oc2c(C#N)cnn(-c3ccc(Br)cc3)c2=O)cc1,inactive,–
COc1ccc(Oc2c(Cl)cnn(Cc3c(C)cc(C)cc3C)c2=O)cc1,7.5 µM,–
CCOc1ccc(Oc2c(N3CCCCC3)cnn(Cc3cccc4ccccc34)c2=O)cc1,–,inactive
CCOc1ccc(Oc2c(N)cnn(Cc3cccc4ccccc34)c2=O)cc1,5.02 µM,–
CCOc1ccc(Oc2ccnn(Cc3cccc4ccccc34)c2=O)cc1,4.6 µM,–
COc1ccc(Oc2c(OC)nn(-c3cccc(C)c3)c(=O)c2Oc2ccc(OC)cc2)cc1,inactive,–
COc1ccc(Oc2c(Cl)cnn(C(c3ccccc3)c3c(C)noc3C)c2=O)cc1 (stereo not drawn),> 20 µM (inactive),–
COc1ccc(Oc2c(Cl)cnn(-c3ccc(F)cc3)c2=O)cc1,7.84 µM,–
COCn1ncc(Cl)c(Oc2ccc(OC)cc2)c1=O,> 20 µM (inactive),–
Cc1ccccc1Cn1ncc(Oc2ccc(CO)cc2)c(Cl)c1=O,6.54 µM,–
C=Cc1cnn(Cc2cccc3ccccc23)c(=O)c1Oc1ccc(OC)cc1,1.69 µM,–
COc1ccc(Oc2c(Cl)cnn(Cc3ccc(Cl)c(C)c3)c2=O)cc1,inactive,–
CC(C)c1ccc(-n2ncc(Cl)c(Oc3ccc(O)cc3)c2=O)cc1,> 20 µM (inactive),–
COc1ccc(Oc2c(Cl)cnn(Cc3ccc(F)cc3Cl)c2=O)cc1,4.16 µM,–
Cc1cc(C)cc(-n2nc(C#N)c(=O)[nH]c2=O)c1,> 20 µM (inactive),–
COc1ccc(Nc2ccnn(Cc3cccc4ccccc34)c2=O)cc1,> 20 µM (inactive),–

# Other lines, results leading:
IC50,inhibition (at 20 µM (top of the series)),Structure (SMILES)
> 20 µM (inactive),–,CCc1ccc(Oc2c(Cl)cnn(C3c4ccccc4-c4ccccc43)c2=O)cc1
1.79 µM,–,COc1ccc(Oc2c(Cl)c(-c3ccccc3C)nn(Cc3ccccc3C)c2=O)cc1
> 20 µM (inactive),–,O=c1c(Oc2ccc3occc3c2)c(Cl)cnn1Cc1cccc2ccccc12
8.08 µM,–,CC(C)c1ccc(Oc2c(Cl)cnn(Cc3cccc4ccccc34)c2=O)cc1
8.03 µM,–,Cc1cc(C)cc(-n2ncc(Cl)c(Oc3ccc(-c4ccccc4)cc3)c2=O)c1
inactive,–,O=c1c(Oc2ccc(OC(F)(F)F)cc2)c(Cl)cnn1Cc1cccc2ccccc12
inactive,–,COc1ccc(Cn2ncc(Cl)c(Oc3ccc(OC)cc3)c2=O)cc1
> 20 µM (inactive),–,COc1ccc(Oc2c(Cl)cnn(C(COC(C)=O)c3cccc4ccccc34)c2=O)cc1 (stereo not drawn)
> 20 µM (inactive),–,COc1ccc(Oc2cnn(Cc3cccc4ccccc34)c(=O)c2Br)cc1
> 20 µM (inactive),–,COc1ccc(Oc2c(Cl)cnn(Cc3ccc(Br)c4ccccc34)c2=O)cc1
2.31 µM,–,CCc1cccc(-n2ncc(Cl)c(Oc3ccc(OC)cc3)c2=O)c1
0.438 µM,–,COc1ccc(Oc2c(Cl)cnn(-c3ccc4ccccc4c3)c2=O)cc1
inactive,–,COc1ccc(Oc2c(Cl)cnn(C(CO)c3ccccc3)c2=O)cc1 (stereo not drawn)
inactive,–,NCc1ccc(Oc2c(Cl)cnn(Cc3cccc4ccccc34)c2=O)cc1
inactive,–,COc1ccc(Oc2c(Cl)cnn(CCc3cccc4ccccc34)c2=O)cc1
9.05 µM,–,C=Cc1ccc(Cn2ncc(Cl)c(Oc3ccc(OC)cc3)c2=O)cc1

IC50,inhibition (at 20 µM (top of the series)),Structure (SMILES)
7.26 µM and 4.63 µM,–,COc1ccc(Oc2c(Cl)cnn(-c3ccc(-c4ccccc4)cc3)c2=O)cc1
> 20 µM (inactive),–,COc1ccc(Oc2c(Cl)cnn(Cc3ccc(-c4ccccc4)cc3)c2=O)cc1
inactive,–,COc1ccc(Oc2c(Cl)cnn(Cc3ccc(C)c4ccccc34)c2=O)cc1
6.75 µM,–,O=c1c(Oc2ccc(CO)cc2)c(Cl)cnn1Cc1cccc2ccccc12
> 20 µM (inactive),–,COc1ccc(Oc2c(Cl)cnn(C(c3ccccc3)c3cccc4ccccc34)c2=O)cc1 (stereo not drawn)
inactive,–,COc1ccc(Oc2c(Cl)cnn(-c3ccccc3)c2=O)cc1
inactive,–,CC(C)Oc1ccc(Oc2c(Cl)cnn(Cc3cccc4ccccc34)c2=O)cc1
> 20 µM (inactive),–,COc1ccc(Oc2c(Cl)cnn(C3=Nc4ccccc4Sc4ccccc43)c2=O)cc1
4.92 µM,–,Cc1ccccc1Cn1ncc(Cl)c(Oc2ccc(CO)cc2)c1=O
2.49 µM,–,COc1ccc(Oc2c(Cl)cnn(Cc3ccc(F)c4ccccc34)c2=O)cc1
7.33 µM,–,O=Cc1ccc(Oc2c(Cl)cnn(Cc3cccc4ccccc34)c2=O)cc1
5.41 µM,–,COc1ccc(Oc2c(C)cnn(Cc3cccc4ccccc34)c2=O)cc1
6.18 µM,–,COc1ccc(Oc2c(Cl)cnn(Cc3c(OC)ccc4ccccc34)c2=O)cc1
7.92 µM,–,O=c1c(Oc2ccc(CCl)cc2)c(Cl)cnn1Cc1cccc2ccccc12
> 20 µM (inactive),–,CN(C)Cc1ccc(Oc2c(Cl)cnn(Cc3cccc4ccccc34)c2=O)cc1
